{"source": "patent US10172805B2", "about": "“Prolonged release formulations comprising an 2-oxo-1-pyrrolidine derivative” (UCB BIOPHARMA SPRL, priority 2008, dated 2019)", "key": {"[1]": {"details": "A. J. GOWER et al., Eur. J. Pharmacol., 222, (1992), 193-203; cited from earlier work"}, "[2]": {"test_system": "patients with post-herpetic neuralgia", "test": "treatment of patients with post-herpetic neuralgia", "format": "in vivo, human", "experimental": "(§1) Brivaracetam is effective in the treatment of epilepsy. A clinical trial evaluated the efficacy and safety of Brivaracetam (5, 20 and 50 mg per day) in the adjunctive treatment of adult patients with refractory partial onset seizures, with or without secondary generalization. Brivaracetam is also effective in the treatment of patients with post-herpetic neuralgia."}, "amygdala-kindled rats": {"test_system": "amygdala-kindled rats", "test": "fully amygdala-kindled rats", "format": "in vivo, rat", "details": "for dose significantly reducing the after-discharge duration: brivaracetam at highest dose tested, levetiracetam inactive up to stated dose"}, "BCS classification": {"test": "BCS classification", "format": "physicochemical", "experimental": "Considering Levetiracetam, Brivaracetam and Seletracetam are classified as BCS I, in order to achieve a prolonged therapeutic plasmatic drug level the resulting in vitro dissolution (USP<711> apparatus n°2) in a buffered aqueous media has to show a drug release of no more than 40% after 1 hour of dissolution, of 25% -80% after 4 hours of dissolution and of no less than 80% after 16 hours of dissolution. Preferably, a profile of no more than 35% after 1 hour of dissolution, of 35% -75% after 4 hours of dissolution and of no less than 80% after 16 hours of dissolution. More preferably a profile of no more than 30% after 1 hour of dissolution, of 45% -70% after 4 hours of dissolution and of no less than 80% after 16 hours of dissolution."}, "GAERS rats": {"test_system": "GAERS rats", "test": "spontaneous SWDs in GAERS rats", "format": "in vivo, rat"}, "mice [3]": {"test_system": "mice", "test": "chemically induced seizures in mice (pentylenetetrazol)", "format": "in vivo", "details": "i.p. 30 min before seizure induction; higher ED50 values than audiogenic", "experimental": "The dose was selected based on dose-effect curves in saline-treated animals as the convulsive dose inducing clonic convulsions of all four extremities in 97% of the animals. Immediately after administration of the chemoconvulsant, the mice were placed individually in small plastic cages (25 13 8 cm) and observed for the presence of clonic convulsions in all four extremities, for 60 min. The occurrence of tonic convulsions (hindlimb extension) and mortality was also recorded during this interval. The proportion of mice protected against clonic convulsions was calculated and used as the end point for anticonvulsant activity."}, "[4]": {"test_system": "adult patients with refractory partial onset seizures", "test": "clinical studies, adjunctive treatment of partial onset seizures (epilepsy)", "format": "in vivo, human", "experimental": "as §1\nSeletracetam is effective in the treatment of epilepsy. Two studies were conducted with Seletracetam in epilepsy evaluating the efficacy and safety of Seletracetam in the adjunctive treatment of partial onset seizures in highly refractory adult patients currently receiving up to three concomitant anti-epileptic drugs."}, "rat hippocampal slices [5]": {"test_system": "rat hippocampal slices", "test": "epileptiform responses in hippocampal slices induced by high-K+/low-Ca2+ fluid (HKLCF)", "format": "cell-based, Sprague-Dawley rats", "set-up": "rate of spontaneous field bursting: dose or concentration left out as unconfirmed", "details": "for evoked epileptiform responses (PS1 amplitude, repetitive PSs) in CA3 area: HKLCF perfusion, fimbrial stimulation", "experimental": "The effect of brivaracetam on epileptiform responses induced by high-K+/low-Ca2+ concentrations or by bicuculline was examined in transverse hippocampal slices prepared from Sprague-Dawley rats according to previously reported standard procedures. The epileptiform responses were induced by passing from a normal perfusion of artificial cerebrospinal fluid (ACSF) (K+3 mM; Ca2+2.4 mM) to either high-K+/low-Ca2+ fluid (HKLCF) (K+7.5 mM; Ca2+0.5 mM) or to […] bicuculline methiodide (BMI)-containing ACSF.\nExtracellular field potentials (FPs) were recorded in the CA3 area of the slices with 2 M NaCl-filled glass microelectrodes. The evoked FPs were recorded at 10-min intervals in response to fimbrial stimulation with constant current rectangular pulses that elicit a single population spike (PS) of 50-75% of the maximal amplitude when the slice is in ACSF. In the HKLCF model, 2 min of spontaneous activity were also recorded, in the middle of each 10-min interval between the recordings of evoked responses.\nEither brivaracetam or levetiracetam was added to the bathing fluid of the slices 20 min before shifting from ACSF to either HKLCF or […] BMI-containing ACSF, and was kept in the perfusion fluid throughout the experiment."}, "[6]": {"test_system": "genetically sound-sensitive male mice", "test": "audiogenic seizures in mice", "format": "in vivo", "details": "audiogenic seizure-susceptible mice; i.p.", "experimental": "Audiogenic seizures in mice: Genetically sound-sensitive male mice (16-28 g; n=10 per group), responding with wild running, clonic and tonic convulsions to an acoustic stimulation, were used. Audiogenic seizures were induced by an acoustic stimulus (90 dB, 10-20 kHz) applied for 30 s. The mice were pretreated with either saline, brivaracetam (i.p., 30 min) or levetiracetam (i.p., 60 min), and the proportion of mice protected against clonic convulsions was used as the end point to assess anticonvulsant activity."}, "mice [7]": {"test_system": "mice", "test": "corneal kindling of mice", "format": "in vivo"}, "mice [8]": {"test_system": "mice", "test": "maximal electroshock in mice", "format": "in vivo", "details": "i.p. 30 min before seizure induction; higher ED50 values than audiogenic"}, "rat hippocampal slices [9]": {"test_system": "rat hippocampal slices", "details": "introductory statement; cited from earlier work"}, "water solubility": {"test": "water solubility", "format": "physicochemical"}, "rat hippocampal slices [10]": {"test_system": "rat hippocampal slices", "details": "introductory statement; cited from earlier work", "remark": "listed apart in the source"}}, "data": [{"molecule": "CC[C@H](C(N)=O)N1CCCC1=O", "note": "[(R)-(+)-α-ethyl-2-oxo-1-pyrrolidine-acetamide]", "values": [{"measurement": "activity in the treatment of epilepsy", "setting": "[1]", "result": "completely devoid of activity"}]}, {"molecule": "CCC[C@@H]1CC(=O)N([C@@H](CC)C(N)=O)C1", "note": "[Brivaracetam, (2S)-2-[(4R)-2-oxo-4-propyl-pyrrolidin-1-yl] butanamide]", "values": [{"measurement": "efficacy in post-herpetic neuralgia", "setting": "[2]", "result": "effective"}, {"measurement": "dose from which significant suppression in motor-seizure severity is induced", "setting": "amygdala-kindled rats", "result": 21.2, "unit": "mg/kg"}, {"measurement": "dose significantly reducing the after-discharge duration", "setting": "amygdala-kindled rats", "result": 212.3, "unit": "mg/kg"}, {"measurement": "BCS class", "setting": "BCS classification", "result": "BCS I"}, {"measurement": "dose from which spontaneous SWDs are significantly suppressed", "setting": "GAERS rats", "result": 2.1, "unit": "mg/kg"}, {"measurement": "inhibition of spontaneous SWDs", "setting": "GAERS rats; highest dose tested (67.9 mg kg−1)", "result": "complete inhibition"}, {"measurement": "protection against clonic convulsions induced by pentylenetetrazol", "setting": "mice [3]", "result": "protected"}, {"measurement": "efficacy in the treatment of epilepsy", "setting": "[4]", "result": "effective"}, {"measurement": "rate of spontaneous field bursting", "setting": "rat hippocampal slices [5]; HKLCF", "result": "reduced the rate"}, {"measurement": "evoked epileptiform responses (PS1 amplitude, repetitive PSs) in CA3 area", "setting": "rat hippocampal slices [5]", "result": "reduced these epileptiform responses"}, {"measurement": "protection against clonic convulsions", "setting": "[6]", "result": "protected"}, {"measurement": "incidence of generalized motor seizures after termination of treatment", "setting": "mice [7]; continued corneal stimulations, group previously treated with the highest dose", "result": "persistent reduction"}, {"measurement": "incidence of generalized motor seizures", "setting": "mice [7]; pretreatment during corneal kindling, levetiracetam at higher doses", "result": "significant reduction"}, {"measurement": "protection against tonic hindlimb extension induced by a maximal electroshock", "setting": "mice [8]", "result": "protected"}]}, {"molecule": "CC[C@@H](C(N)=O)N1CCCC1=O", "note": "[Levetiracetam, (S)-(−)α-ethyl-2-oxo-1-pyrrolidineacetamide]", "values": [{"measurement": "dose from which significant suppression in motor-seizure severity is induced", "setting": "amygdala-kindled rats", "result": 170, "unit": "mg/kg"}, {"measurement": "dose significantly reducing the after-discharge duration", "setting": "amygdala-kindled rats", "result": "> 1700", "unit": "mg/kg"}, {"measurement": "BCS class", "setting": "BCS classification", "result": "BCS I"}, {"measurement": "dose from which spontaneous SWDs are significantly suppressed", "setting": "GAERS rats", "result": 5.4, "unit": "mg/kg"}, {"measurement": "epileptiform responses induced by bicuculline", "setting": "rat hippocampal slices [9]", "result": "reduces epileptiform responses"}, {"measurement": "evoked epileptiform responses (PS1 amplitude, repetitive PSs) in CA3 area", "setting": "rat hippocampal slices [5]", "result": "reduced these epileptiform responses"}, {"measurement": "solubility", "setting": "water solubility", "result": "> 500", "unit": "mg/mL"}, {"measurement": "protection against clonic convulsions", "setting": "[6]", "result": "protected"}, {"measurement": "epileptiform responses induced by high-K+/low-Ca2+ concentrations", "setting": "rat hippocampal slices [10]", "result": "reduces epileptiform responses"}]}, {"molecule": "CC[C@@H](C(N)=O)N1C[C@H](C=C(F)F)CC1=O", "note": "[Seletracetam, (2S)-2-[(4S)-4-(2,2-difluorovinyl)-2-oxo-pyrrolidin-1-yl]butanamide]", "values": [{"measurement": "BCS class", "setting": "BCS classification", "result": "BCS I"}, {"measurement": "efficacy in the treatment of epilepsy", "setting": "[4]", "result": "effective"}]}]}
